# What was measured:
# [1] = Phosphorus solubility in water (Quimociac method); format: physicochemical; settings: tricalcium phosphate experiment, absolute content
# Experimental: (§1) At room temperature, 3 g sample and 300 ml distilled water have been agitated for 30 min. Subsequently the solution has been diluted to 500 ml and stirred. Then the solution has been filtered to remove the remaining solids. The Ca^2+ content of the solution was determined flame photometrically by means of ICP, and the amount of dissolved phosphorus was determined by the Quimociac method. These two methods are well known in the technical field.
# [2] = Calcium solubility in water (ICP); format: physicochemical; settings: tricalcium phosphate experiment, absolute content
# Experimental: as §1
# pigs = settings: phosphorus digestibility, Veevoedertabel 2000; cited from earlier work
% P water sol. [1],% Ca water sol. [2],Molecule,Dig. Coeff. for pigs Average (pigs)
<0.1%,<0.1%,hydroxyl apatite [Hydroxyl apatite (ref)],–
–,–,"O=P([O-])([O-])O.[Ca+2] [Dicalcium phosphate, anhydrate]",0.64
–,–,"Dicalcium phosphate, dihydrate",0.70

# — patent publication US20060141098A1, “Nutritional additive for animals” (Kemira Grow How AB, priority 2002, published 2006)
